Data taken from patent publication US12077503B2, “Substituted cyclic amides and their use as herbicides” (FMC CORPORATION, priority 2015, dated 2024).

What was measured:
Assay type in all cases: in vivo
[1] = system: giant foxtail (Setaria faberi); assay: Test G Post-Emergence Protocol; conditions: Setaria faberi, post-emergence, 312 h
Summary of the method: (§1)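 Seedlings grown 8 days in soil in a glasshouse (24/16 °C day/night, 14 h light, 65% humidity) were sprayed post-emergence with compound in acetone/water 50:50 plus 0.5% Tween 20 at 15.625, 62.5 or 250 g/ha. Damage was scored after 13 days on a 0–100 scale (100 = total damage).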

[2] = system: barnyardgrass (Echinochloa crus-galli); assay: Test G Post-Emergence Protocol; conditions: Echinochloa crus-galli, post-emergence, 312 h
Summary of the method: as §1

[3] = system: velvetleaf (Abutilon theophrasti); assay: Test G Post-Emergence Protocol; conditions: Abutilon theophrasti, post-emergence, 312 h
Summary of the method: as §1

[4] = system: ivy-leaved morning glory (Ipomoea hederacea); assay: Test G Post-Emergence Protocol; conditions: Ipomoea, post-emergence, 312 h
Summary of the method: as §1

[5] = system: redroot pigweed (Amaranthus retroflexus); assay: Test G Post-Emergence Protocol; conditions: Amaranthus retroflexus, post-emergence, 312 h
Summary of the method: as §1

corn (Zea mays) [6] = assay: Test G Post-Emergence Protocol; conditions: Zea mays, post-emergence, 312 h
Summary of the method: as §1

[7] = system: giant foxtail (Setaria faberi); assay: Test G Pre-Emergence Protocol; conditions: Setaria faberi, pre-emergence, 312 h, evaluated after 13 days
Summary of the method: (§2)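 Pots of seeds in standard soil were grown for one day in a glasshouse (24/16 °C day/night, 14 h light, 65% humidity), then sprayed with compound in acetone/water 50:50 with 0.5% Tween 20 at 15.625, 62.5 or 250 g/ha. Damage was scored after 13 days on a 0 (none) to 100 (total) scale.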

[8] = system: barnyardgrass (Echinochloa crus-galli); assay: Test G Pre-Emergence Protocol; conditions: Echinochloa crus-galli, pre-emergence, 312 h, evaluated after 13 days
Summary of the method: as §2

[9] = system: velvetleaf (Abutilon theophrasti); assay: Test G Pre-Emergence Protocol; conditions: Abutilon theophrasti, pre-emergence, 312 h, evaluated after 13 days
Summary of the method: as §2

[10] = system: ivy-leaved morning glory (Ipomoea hederacea); assay: Test G Pre-Emergence Protocol; conditions: Ipomoea, pre-emergence, 312 h, evaluated after 13 days
Summary of the method: as §2

[11] = system: redroot pigweed (Amaranthus retroflexus); assay: Test G Pre-Emergence Protocol; conditions: Amaranthus retroflexus, pre-emergence, 312 h, evaluated after 13 days
Summary of the method: as §2

corn (Zea mays) [12] = assay: Test G Pre-Emergence Protocol; conditions: Zea mays, pre-emergence, 312 h, evaluated after 13 days
Summary of the method: as §2

## CN1C[C@H](c2ccc(C(F)(F)F)cc2)[C@@H](C(=O)Nc2ccc(F)cc2S(C)(=O)=O)C1=O (racemic) [Compound 1483]
[1]; 15.625 g ai/ha, evaluated after 13 days (100=total damage to plant; 0=no damage to plant), read-out: Foxtail, Giant damage rating
  pest or weed control at 15.625 g/ha: 30%
[1]; 62.5 g ai/ha, evaluated after 13 days, read-out: Foxtail, Giant damage rating (100=total damage to plant; 0=no damage to plant)
  pest or weed control at 62.5 g/ha: 60%
[1]; 250 g ai/ha, evaluated after 13 days, read-out: damage to plant, Foxtail, Giant (100=total damage to plant; 0=no damage to plant)
  pest or weed control at 250 g/ha: 70%
[2]; 15.625 g ai/ha, evaluated after 13 days (100=total damage to plant; 0=no damage to plant), read-out: Barnyardgrass damage rating
  pest or weed control at 15.625 g/ha: 30%
[2]; 62.5 g ai/ha, evaluated after 13 days, read-out: Barnyardgrass damage rating (100=total damage to plant; 0=no damage to plant)
  pest or weed control at 62.5 g/ha: 40%
[2]; 250 g ai/ha, evaluated after 13 days, read-out: damage to plant, Barnyardgrass (100=total damage to plant; 0=no damage to plant)
  pest or weed control at 250 g/ha: 70%
[3]; 15.625 g ai/ha, evaluated after 13 days (100=total damage to plant; 0=no damage to plant), read-out: Velvetleaf damage rating
  pest or weed control at 15.625 g/ha: 10%
[3]; 62.5 g ai/ha, evaluated after 13 days, read-out: Velvetleaf damage rating (100=total damage to plant; 0=no damage to plant)
  pest or weed control at 62.5 g/ha: 10%
[3]; 250 g ai/ha, evaluated after 13 days, read-out: damage to plant, Velvetleaf (100=total damage to plant; 0=no damage to plant)
  pest or weed control at 250 g/ha: 30%
[4]; 15.625 g ai/ha, evaluated after 13 days (100=total damage to plant; 0=no damage to plant), read-out: Morningglory, Ivy-leaved damage rating
  pest or weed control at 15.625 g/ha: 0%
[4]; 62.5 g ai/ha, evaluated after 13 days, read-out: Morningglory, Ivy-leaved damage rating (100=total damage to plant; 0=no damage to plant)
  pest or weed control at 62.5 g/ha: 0%
[4]; 250 g ai/ha, evaluated after 13 days, read-out: damage to plant, Morningglory, Ivy-leaved (100=total damage to plant; 0=no damage to plant)
  pest or weed control at 250 g/ha: 0%
[5]; 15.625 g ai/ha, evaluated after 13 days (100=total damage to plant; 0=no damage to plant), read-out: Pigweed, Redroot damage rating
  pest or weed control at 15.625 g/ha: 40%
[5]; 62.5 g ai/ha, evaluated after 13 days, read-out: Pigweed, Redroot damage rating (100=total damage to plant; 0=no damage to plant)
  pest or weed control at 62.5 g/ha: 30%
[5]; 250 g ai/ha, evaluated after 13 days, read-out: damage to plant, Pigweed, Redroot (100=total damage to plant; 0=no damage to plant)
  pest or weed control at 250 g/ha: 60%
Corn (Zea mays) [6]; 15.625 g ai/ha, evaluated after 13 days (100=total damage to plant; 0=no damage to plant), read-out: Corn damage rating
  plant injury at 15.625 g/ha: 20%
Corn (Zea mays) [6]; 62.5 g ai/ha, evaluated after 13 days, read-out: Corn damage rating (100=total damage to plant; 0=no damage to plant)
  plant injury at 62.5 g/ha: 30%
Corn (Zea mays) [6]; 250 g ai/ha, evaluated after 13 days, read-out: damage to plant, Corn (100=total damage to plant; 0=no damage to plant)
  plant injury at 250 g/ha: 50%
[7]; 15.625 g ai/ha, read-out: Foxtail, Giant damage rating (100=total damage to plant; 0=no damage to plant)
  pest or weed control at 15.625 g/ha: 30%
[7]; 62.5 g ai/ha, 100=total damage to plant, 0=no damage to plant, read-out: plant damage rating, Foxtail, Giant
  pest or weed control at 62.5 g/ha: 60%
[7]; 250 g ai/ha, read-out: Foxtail, Giant damage rating (100=total damage to plant; 0=no damage to plant)
  pest or weed control at 250 g/ha: 80%
[8]; 15.625 g ai/ha, read-out: Barnyard grass damage rating (100=total damage to plant; 0=no damage to plant)
  pest or weed control at 15.625 g/ha: 40%
[8]; 62.5 g ai/ha, 100=total damage to plant, 0=no damage to plant, read-out: plant damage rating, Barnyardgrass
  pest or weed control at 62.5 g/ha: 40%
[8]; 250 g ai/ha, read-out: Barnyardgrass damage rating (100=total damage to plant; 0=no damage to plant)
  pest or weed control at 250 g/ha: 70%
[9]; 15.625 g ai/ha, read-out: Velvetleaf damage rating (100=total damage to plant; 0=no damage to plant)
  pest or weed control at 15.625 g/ha: 0%
[9]; 62.5 g ai/ha, 100=total damage to plant, 0=no damage to plant, read-out: plant damage rating, Velvetleaf
  pest or weed control at 62.5 g/ha: 0%
[9]; 250 g ai/ha, read-out: Velvetleaf damage rating (100=total damage to plant; 0=no damage to plant)
  pest or weed control at 250 g/ha: 0%
[10]; 15.625 g ai/ha, read-out: Morning-glory, Ivy-leaved damage rating (100=total damage to plant; 0=no damage to plant)
  pest or weed control at 15.625 g/ha: 0%
[10]; 62.5 g ai/ha, 100=total damage to plant, 0=no damage to plant, read-out: plant damage rating, Morningglory, Ivy-leaved
  pest or weed control at 62.5 g/ha: 0%
[10]; 250 g ai/ha, read-out: Morningglory, Ivy-leaved damage rating (100=total damage to plant; 0=no damage to plant)
  pest or weed control at 250 g/ha: 0%
[11]; 15.625 g ai/ha, read-out: Pigweed, Redroot damage rating (100=total damage to plant; 0=no damage to plant)
  pest or weed control at 15.625 g/ha: 20%
[11]; 62.5 g ai/ha, 100=total damage to plant, 0=no damage to plant, read-out: plant damage rating, Pigweed, Redroot
  pest or weed control at 62.5 g/ha: 40%
[11]; 250 g ai/ha, read-out: Pigweed, Redroot damage rating (100=total damage to plant; 0=no damage to plant)
  pest or weed control at 250 g/ha: 80%
Corn (Zea mays) [12]; 15.625 g ai/ha, read-out: Corn damage rating (100=total damage to plant; 0=no damage to plant)
  plant injury at 15.625 g/ha: 30%
Corn (Zea mays) [12]; 62.5 g ai/ha, 100=total damage to plant, 0=no damage to plant, read-out: plant damage rating, Corn
  plant injury at 62.5 g/ha: 20%
Corn (Zea mays) [12]; 250 g ai/ha, read-out: Corn damage rating (100=total damage to plant; 0=no damage to plant)
  plant injury at 250 g/ha: 40%
